Assay results from patent publication US10066025B2, “Compositions and methods for detecting, treating and preventing diseases and disorders” (YALE UNIVERSITY, priority 2012, dated 2018).

Experiments:
[1] = system: renal ischemia/reperfusion (IR) injury; experiment: Murine model of renal ischemia/reperfusion (IR) injury, plasma creatinine; type: in vivo, mice; settings: for effect of ERK or PI3K/AKT inhibitor pretreatment on protective action of RP-H220 / protection against ischemic AKI (renal injury, plasma creatinine at 24 hr): WT mice; for effect of ERK or PI3K/AKT inhibitor pretreatment on protective action of RP-H220: 30 min renal IR; for severity of AKI, inhibitor alone without the peptides: ischemic WT mice; for renal protection (plasma creatinine): 5 mg/kg i.p., 30 min. renal IR; for protection against ischemic AKI (renal injury, plasma creatinine at 24 hr): renalase peptides 100 μg subcutaneous 10 to 30 min prior to 30 min renal ischemia
Experimental: Adult male renalase deficient (KO) mice (Wu et al., 2011, Kidney Int 79: 853-860) on a C57BL/6 background were subjected to renal ischemia/reperfusion (IR) as described (Kim et al., 2009, Kidney Int 75: 809-823; Kim et al., 2010, Am J Physiol Renal Physiol 299(2):F347-58). Renalase KO or wild type (WT) mice (C57BL/6 from Harlan Labs, Indianapolis, Ind.) were subjected to sham-operation or to 20 min. (moderate) or 30 min. (severe) renal ischemia and 24 hr. reperfusion. To test the renal protective effects of recombinant human renalase, mice were pretreated with saline (vehicle) or with recombinant renalase (0.5, 1.5 or 4.5 mg/kg, s.c.) 10 min. prior to 30 min. renal ischemia. It was also tested whether renalase treatment after completion of renal ischemia also provides renal protection. Separate cohorts of mice were treated with saline or with renalase (1.5 mg/kg, s.c.) 30 min. or 60 min. after reperfusion of the ischemic kidney. To test whether blocking alpha receptors would mimic the renal protective effects of human recombinant renalase administration, phentolamine (an alpha receptor antagonist, 5 mg/kg, i.p.) was given in some mice 15 min. before renal ischemia.
Plasma creatinine was measured as described with an enzymatic creatinine reagent kit according to the manufacturer's instructions (Thermo Fisher Scientific, Waltham, Mass.) (Slot, 1965, J Clin Lab Invest 17: 381-387).
After animal care and use committee approval, adult male C57BL/6 (Harlan Labs, Indianapolis, Ind.) were subjected to sham-operation or to 30 minutes of renal ischemia followed by 24 hrs of reperfusion as previously described (Lee et al., 2004, American journal of physiology. Renal physiology 286:F298-306). To test the renal protective effects of renalase peptides (RP-220, RP-H220 and RP-224), mice were pretreated with saline (vehicle) or with renalase peptides (100 μg subcutaneous) 10 to 30 minutes prior to renal ischemia.
Blood was collected from mice anesthetized with isoflurane via cardiac puncture into a heparinized syringe and was subsequently centrifuged to separate plasma. Samples were submitted to the Yale O'Brien Kidney Center for measurement of BUN and creatinine. Plasma creatinine was measured either by an enzymatic creatinine reagent kit according to the manufacturer's instructions (Thermo Fisher Scientific, Waltham, Mass.) or by HPLC. These methods of creatinine measurement largely eliminate the interferences from mouse plasma chromagens, known to occur with the Jaffe method.

systemic blood pressure = experiment: Blood pressure and heart rate in anesthetized mice; type: in vivo; settings: for effect on systemic blood pressure: IV and subcutaneous administration, mice
Experimental: As in 14A, except that RP-H220 is injected; no significant changes in blood pressure (FIG. 14B). Effect of a single intravenous injection of RP-220 (squares) and RP-H220 (diamonds) on heart rate in wild type mice (FIG. 14C).
FIG. 21 depicts the results of experiments examining the effect of RP-220 injection on blood pressure. A single subcutaneous injection of RP-220 (n=3) or buffer (n=2) in anesthetized wild type mice; BP pressure is recorded continuously; RP-220 is given at time 0; each data point represents the mean pressure; the standard error of the means are shown.
Systolic and diastolic pressure and heart rate were measured in anesthetized mice as previously described (Desir et al., 2012, J Am Heart Assoc. 1:e002634).

[2] = system: PI3K/AKT and MAPK pathways; experiment: AKT and MAPK signaling and Bcl-2 expression by western blot; type: cell-based, human; settings: HK-2 cells in culture
Experimental: FIG. 12, comprising FIGS. 12A through 12E, is a set of images and graphs showing renalase upregulates Bcl-2, activates PI3K/AKT, ERK, p38, and inhibits JNK. Western blot analysis; P− indicates phosphorylated, activated proteins; signals normalized to GAPDH loading control, then changes in protein phosphorylation (increase=activation, decrease=inhibition) from time 0 are calculated. FIG. 12A: HK-2 and HUVEC cells incubated with renalase for 24 hrs; FIG. 12B: Western blot of time course of AKT and MAPK signaling by renalase, HK-2 cells incubated with renalase for indicated time; changes over baseline in 4c-d are significant (p<0.05); FIG. 12C: Activation of AKT(T308), AKT(5473) and ERK; FIG. 12D: Inhibition of JNK; FIG. 12E: Marked and sustained (60 min) upregulation of p38 by renalase in the presence of cisplatin, western blot for time course, REN=renalase, CP=cisplatin.
MAPK signaling by renalase and renalase peptides. Western blot analysis; ERK: Extracellular signal-Regulated Kinase 1 and 2; JNK: c-Jun N-terminal Kinases; AKT: protein kinase B; p-indicates phosphorylated, activated proteins; representative blot, n=3 (FIG. 20A). Renalase activates AKT (FIG. 20B). Western blot analysis; P− indicates phosphorylated, activated proteins Representative blot, n=3 (FIG. 20B, left panel). Signals normalized to GAPDH loading control; n=3, change over baseline statistically significant (P<0.05) from 1-60 min for ERK, p38 and AKT (T308), and at 30 min only for AKT (S473) (FIG. 20B, right panel). ERK or AKT inhibition abrogates protective effect of RP-H220 (FIG. 20C). Plasma creatinine levels from mice subjected to sham-surgery or to renal ischemia and reperfusion (IR); Renalase WT mice were subjected to sham-surgery or to 30 min renal IR. For mice subjected to renal IR, RP-H220 or vehicle (saline) was injected 10 min prior to renal ischemia. Some animals were pretreated with either the ERK inhibitor PD98059 or the PI3K/AKT inhibitor wortmanin. (N=6-8 per group). *: P<0.05 vs. vehicle-treated mice subjected to sham-surgery; #: P<0.05 vs. vehicle-treated WT mice subjected to renal IR (FIG. 20C).

HK-2 cells [3] = experiment: HK-2 cell necrosis induced with 2 mM H2O2 (LDH release); type: cell-based, human
Experimental: (§1) HK2 cells (human proximal tubular line) obtained from ATTC (Manassas, Va., USA) were cultured in DMEM/F12 supplemented with glutamine, 10% FBS and antibiotics, and were maintained at 37° C. in 5% CO2. Cells were exposed to cisplatin (20 μM) in the presence or absence of renalase for 24 hrs, and cell viability was assessed by the WST1 method (Roche Applied Science, Germany). Cells were then harvested in RIPA buffer (20 mM Tris-HCl pH 7.5, 150 mM NaCl, 1 mM Na2EDTA, 1 mM EGTA, 1% NP-40, 1% sodium deoxycholate, 2.5 mM sodium pyrophosphate, 1 mM β-glycerophosphate, 1 mM Na3VO4, 1 μg/ml leupeptin) supplemented with a protease and phosphatase inhibitor cocktail (Roche Applied Science, Germany). Proteins were separated by SDS-PAGE and Western blotting was carried out using the following antibodies: anti-renalase monoclonal (Desir et al., 2012, J Am Heart Assoc. 1:e002634; (Lee et al., 2013, J Am Soc Nephrol 24:445-455); anti caspase 3 (Cell Signaling Technology, MA, USA) and anti Bcl2 (Thermo Scientific, USA). Necrotic injury in HK-2 cells (ATCC, Manassas, Va.) was induced with exposure to 2 mM H2O2 for 2-8 hr and lactate dehydrogenase (LDH) released into cell culture media was measured as described using a commercial LDH assay kit (Promega, Madison, Wis.) (Lee and Emala, 2002, American journal of physiology. Renal physiology 282:F844-852).

HK-2 cells [4] = experiment: HK-2 cell cisplatin toxicity (WST-1 viability, western blot); type: cell-based, human; settings: 20 μM cisplatin, 24 hrs
Experimental: Cultured HK-2 cells were incubated with 20 μM cisplatin for 24 hours with and without recombinant renalase. Renalase expression was examined by Western blot and cell viability (mitochondrial integrity) was determined spectrophotometrically using WST-1, a tetrazolium salt that is cleaved, by mitochondrial dehydrogenases of metabolically active and viable cells, to formazan (420-480 nm) (Boehringer Mannheim, Germany).
as §1

COc1cccc(-c2cc(=O)c3ccccc3o2)c1N [PD98059, 2′-amino 3′ methoxyflavone, reference compound]
effect of ERK or PI3K/AKT inhibitor pretreatment on protective action of RP-H220 [1]: completely abrogated | severity of AKI, inhibitor alone without the peptides [1]: had no effect on the severity of AKI

Cc1ccc(N(CC2=NCCN2)c2cccc(O)c2)cc1 [Phentolamine, reference compound]
renal protection (plasma creatinine) ([1]; renalase KO mice): protected renalase KO mice | renal protection (plasma creatinine) ([1]; renalase WT mice): produced significant renal protection

COC[C@H]1OC(=O)c2coc3c2[C@@]1(C)C1=C(C3=O)[C@@H]2CCC(=O)[C@@]2(C)C[C@H]1OC(C)=O [wortmanin, reference compound]
effect of ERK or PI3K/AKT inhibitor pretreatment on protective action of RP-H220 [1]: A similar result was obtained | severity of AKI, inhibitor alone without the peptides [1]: had no effect on the severity of AKI

RP 19: renalase peptide, SEQ ID NO: 8, LLRRQTSGPLYLAVWDKAED (listed as Homo sapiens)
effect on systemic blood pressure (systemic blood pressure): no effect on BP

RP 128: renalase peptide, SEQ ID NO: 7, FRHRVTQINLRDDKWEVSKQ (listed as Homo sapiens)
effect on systemic blood pressure (systemic blood pressure): no effect on BP

RP 220 scrambled: scrambled RP-220, SEQ ID NO: 6, CSKRIFKVISSIEDNNERG (listed as Homo sapiens) [reference compound]
AKT and MAPK signaling (phosphorylation of ERK, p38, AKT) ([2]; listed as RP-Scr220): did not activate the AKT and MAPK signaling | AKT and MAPK signaling (phosphorylation of ERK, p38, AKT) ([2]; listed as scrambled RP H220): not | effect on systemic blood pressure (systemic blood pressure): no effect on BP | effect on blood pressure and heart rate (systemic blood pressure; anesthetized WT mice): no effect on blood pressure and heart rate

RP 220: renalase peptide, amino acids 220-239, SEQ ID NO: 3, CIRFVSIDNKKRNIESSEIG (listed as Homo sapiens)
protection against ischemic AKI (renal injury, plasma creatinine at 24 hr) [1]: less effective | protection against ischemic AKI (renal injury, plasma creatinine at 24 hr) ([1]; listed as RP-220): reduced renal injury | necrosis induced with 2 mM H2O2 (HK-2 cells [3]; at 2 and 4 hrs): significantly reduced necrosis | cell survival / protection against cisplatin toxicity (HK-2 cells [4]): improved HK-2 cell survival | AKT and MAPK signaling (phosphorylation of ERK, p38, AKT) [2]: rapid and transient phosphorylation | effect on systemic blood pressure (systemic blood pressure): marked and sustained effect on systemic blood pressure | mean blood pressure decrease at 15 min (systemic blood pressure; WT mice, n=4, P=NS): 11.9±0.9 mmHg | blood pressure after single intravenous injection (systemic blood pressure; anesthetized WT mice): profound fall in blood pressure | blood pressure after subcutaneous administration (systemic blood pressure; anesthetized WT mice): decreased blood pressure | delay in the onset of fall in blood pressure after subcutaneous administration (systemic blood pressure; anesthetized WT mice): 30 to 60 min | duration of fall in blood pressure after intravenous injection (systemic blood pressure; anesthetized WT mice): up to two hours | heart rate increase (systemic blood pressure; anesthetized WT mice): 5% | onset of fall in blood pressure after intravenous injection (systemic blood pressure; anesthetized WT mice): ≤ 30 s

RP 224: renalase peptide amino acid 224-233, SEQ ID NO: 2, CVSIDNKKRNI (listed as Homo sapiens)
protection against ischemic AKI (renal injury, plasma creatinine at 24 hr) [1]: not protective | protection against ischemic AKI (renal injury, plasma creatinine at 24 hr) ([1]; listed as RP-224): ineffective | protection against 2 mM H2O2 necrosis (HK-2 cells [3]; at 2 hrs): protective at 2 hrs | protection against 2 mM H2O2 necrosis (HK-2 cells [3]; at 4 hrs): not at 4 hrs | cell survival / protection against cisplatin toxicity (HK-2 cells [4]): improved HK-2 cell survival | effect on systemic blood pressure (systemic blood pressure): no effect on BP | effect on blood pressure and heart rate (systemic blood pressure; anesthetized WT mice): no effect on blood pressure and heart rate

RP A220: renalase peptide, SEQ ID NO: 5, IRFVSIDNAAANIESSEIG (listed as Homo sapiens)
effect on systemic blood pressure (systemic blood pressure): no effect on BP
